Measured values taken from ChEMBL document CHEMBL1201862, “PubChem BioAssay data set” (2004).
Each block holds one compound with its values, some of them ahead of it. Calls of active or inactive are those of the source.

Experiments:
Format in all cases: functional
[1] = target: Tyrosine-protein kinase receptor TYRO3 (Homo sapiens, UniProt Q06418);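 further: TYRO3 value obtained as one member of a kinome-wide profiling panel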
[2] = target: High affinity nerve growth factor receptor (Homo sapiens, UniProt P04629);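 further: NTRK1 tested as one member of a kinome-wide profiling panel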
[3] = target: Dual specificity protein kinase CLK4 (Homo sapiens, UniProt Q9HAZ1)
[4] = target: Leukocyte tyrosine kinase receptor (Homo sapiens, UniProt P29376); experiment: Navigating the Kinome. Panel member name: LTK
[5] = target: BDNF/NT-3 growth factors receptor (Homo sapiens, UniProt Q16620);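 further: NTRK2 measured as one member of a broad kinome-wide kinase profiling panel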
[6] = target: Platelet-derived growth factor receptor beta (Homo sapiens, UniProt P09619);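 further: value comes from a kinome panel, with PDGFRB tested as one panel member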
[7] = target: Death-associated protein kinase 3 (Homo sapiens, UniProt O43293);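 further: measured as one member of a kinome-wide profiling panel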
[8] = target: Protein kinase C theta type (Homo sapiens, UniProt Q04759); experiment: Navigating the Kinome. Panel member name: PRKCQ
[9] = target: Serine/threonine-protein kinase TAO1 (Homo sapiens, UniProt Q7L7X3)
[10] = target: Dual specificity tyrosine-phosphorylation-regulated kinase 1A (Homo sapiens, UniProt Q13627);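 further: measured against DYRK1A as one member of a broad kinome profiling panel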
[11] = target: Macrophage colony-stimulating factor 1 receptor (Homo sapiens, UniProt P07333);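 further: value comes from the Navigating the Kinome screening panel, CSF1R member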
[12] = target: Vascular endothelial growth factor receptor 2 (Homo sapiens, UniProt P35968)
[13] = target: cAMP-dependent protein kinase catalytic subunit alpha (Homo sapiens, UniProt P17612)
[14] = target: Dual specificity tyrosine-phosphorylation-regulated kinase 1B (Homo sapiens, UniProt Q9Y463); experiment: Navigating the Kinome. Panel member name: DYRK1B
[15] = target: Casein kinase I isoform alpha (Homo sapiens, UniProt P48729)
[16] = target: Serine/threonine-protein kinase Chk1 (Homo sapiens, UniProt O14757);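 further: measured as one member of a kinome-wide kinase profiling panel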
[17] = target: Cyclin-dependent kinase 9 (Homo sapiens, UniProt P50750);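 further: value from the CDK9 entry of a kinome-spanning kinase panel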
[18] = target: LIM domain kinase 1 (Homo sapiens, UniProt P53667); experiment: Navigating the Kinome. Panel member name: LIMK1
[19] = target: Aurora kinase A (Homo sapiens, UniProt O14965);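 further: value from the Navigating the Kinome kinase panel profiling, panel entry STK6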
[20] = target: Inhibitor of nuclear factor kappa-B kinase subunit epsilon (Homo sapiens, UniProt Q14164); experiment: Navigating the Kinome. Panel member name: IKBKE
[21] = target: Glycogen synthase kinase-3 alpha (Homo sapiens, UniProt P49840);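 further: GSK3A result taken from a broad kinome-wide kinase panel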
Glycogen synthase kinase-3 alpha, sequence (P49840 whole entry): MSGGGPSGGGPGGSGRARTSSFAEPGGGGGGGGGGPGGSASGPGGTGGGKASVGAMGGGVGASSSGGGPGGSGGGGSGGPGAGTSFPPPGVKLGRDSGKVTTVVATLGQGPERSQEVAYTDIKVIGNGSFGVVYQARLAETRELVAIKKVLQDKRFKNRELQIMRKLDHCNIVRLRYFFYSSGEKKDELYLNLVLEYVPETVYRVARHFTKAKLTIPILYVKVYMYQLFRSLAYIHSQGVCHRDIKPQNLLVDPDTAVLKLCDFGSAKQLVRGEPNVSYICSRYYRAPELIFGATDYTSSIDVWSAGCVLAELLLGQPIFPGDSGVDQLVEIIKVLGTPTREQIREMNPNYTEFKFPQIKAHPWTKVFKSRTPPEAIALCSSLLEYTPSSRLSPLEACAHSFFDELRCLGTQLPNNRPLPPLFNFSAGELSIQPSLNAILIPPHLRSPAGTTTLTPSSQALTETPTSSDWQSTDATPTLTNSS

Dual specificity protein kinase CLK4, sequence (Q9HAZ1 whole entry): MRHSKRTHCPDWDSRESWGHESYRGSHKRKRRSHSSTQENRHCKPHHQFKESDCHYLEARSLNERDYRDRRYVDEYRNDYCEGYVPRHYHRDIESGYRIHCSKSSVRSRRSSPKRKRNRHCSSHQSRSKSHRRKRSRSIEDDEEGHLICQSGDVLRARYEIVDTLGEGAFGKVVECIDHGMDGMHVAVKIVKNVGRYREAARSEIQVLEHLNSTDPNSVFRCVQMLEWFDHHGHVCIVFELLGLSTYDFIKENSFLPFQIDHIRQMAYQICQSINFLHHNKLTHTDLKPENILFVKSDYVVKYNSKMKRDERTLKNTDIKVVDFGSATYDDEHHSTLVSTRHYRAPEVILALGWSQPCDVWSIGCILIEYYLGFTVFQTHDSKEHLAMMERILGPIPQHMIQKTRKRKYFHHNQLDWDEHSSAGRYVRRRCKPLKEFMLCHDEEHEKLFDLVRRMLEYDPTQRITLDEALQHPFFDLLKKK
Casein kinase I isoform alpha, sequence (P48729 whole entry, canonical isoform): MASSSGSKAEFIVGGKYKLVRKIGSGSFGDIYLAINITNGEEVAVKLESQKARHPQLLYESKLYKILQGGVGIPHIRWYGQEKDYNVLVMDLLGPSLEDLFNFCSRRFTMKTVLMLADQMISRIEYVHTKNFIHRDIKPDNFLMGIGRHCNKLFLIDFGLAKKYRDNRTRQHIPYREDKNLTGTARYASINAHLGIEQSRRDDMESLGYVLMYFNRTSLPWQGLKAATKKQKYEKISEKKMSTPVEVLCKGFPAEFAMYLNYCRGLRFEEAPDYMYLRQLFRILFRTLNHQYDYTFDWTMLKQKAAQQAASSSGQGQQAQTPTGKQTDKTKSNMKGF
Protein kinase C theta type, sequence (Q04759 whole entry): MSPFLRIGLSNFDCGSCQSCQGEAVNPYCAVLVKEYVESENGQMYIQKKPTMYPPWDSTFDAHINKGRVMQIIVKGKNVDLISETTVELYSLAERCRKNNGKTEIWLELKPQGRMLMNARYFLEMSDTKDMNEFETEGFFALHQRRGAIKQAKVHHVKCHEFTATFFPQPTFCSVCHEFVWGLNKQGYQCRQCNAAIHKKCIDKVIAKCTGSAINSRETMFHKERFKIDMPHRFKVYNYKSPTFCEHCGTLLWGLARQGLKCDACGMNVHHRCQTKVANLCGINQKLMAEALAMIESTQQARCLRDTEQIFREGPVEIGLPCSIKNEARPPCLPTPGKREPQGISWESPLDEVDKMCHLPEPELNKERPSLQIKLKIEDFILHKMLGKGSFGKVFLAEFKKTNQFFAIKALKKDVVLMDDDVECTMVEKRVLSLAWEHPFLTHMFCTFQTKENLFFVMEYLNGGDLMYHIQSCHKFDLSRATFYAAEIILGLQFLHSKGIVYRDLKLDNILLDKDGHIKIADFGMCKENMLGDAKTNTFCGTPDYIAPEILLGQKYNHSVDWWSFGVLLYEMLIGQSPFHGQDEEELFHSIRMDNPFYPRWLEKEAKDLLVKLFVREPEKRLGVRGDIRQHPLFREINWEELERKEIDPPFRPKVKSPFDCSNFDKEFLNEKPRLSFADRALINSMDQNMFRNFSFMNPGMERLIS
High affinity nerve growth factor receptor, sequence (P04629 whole entry): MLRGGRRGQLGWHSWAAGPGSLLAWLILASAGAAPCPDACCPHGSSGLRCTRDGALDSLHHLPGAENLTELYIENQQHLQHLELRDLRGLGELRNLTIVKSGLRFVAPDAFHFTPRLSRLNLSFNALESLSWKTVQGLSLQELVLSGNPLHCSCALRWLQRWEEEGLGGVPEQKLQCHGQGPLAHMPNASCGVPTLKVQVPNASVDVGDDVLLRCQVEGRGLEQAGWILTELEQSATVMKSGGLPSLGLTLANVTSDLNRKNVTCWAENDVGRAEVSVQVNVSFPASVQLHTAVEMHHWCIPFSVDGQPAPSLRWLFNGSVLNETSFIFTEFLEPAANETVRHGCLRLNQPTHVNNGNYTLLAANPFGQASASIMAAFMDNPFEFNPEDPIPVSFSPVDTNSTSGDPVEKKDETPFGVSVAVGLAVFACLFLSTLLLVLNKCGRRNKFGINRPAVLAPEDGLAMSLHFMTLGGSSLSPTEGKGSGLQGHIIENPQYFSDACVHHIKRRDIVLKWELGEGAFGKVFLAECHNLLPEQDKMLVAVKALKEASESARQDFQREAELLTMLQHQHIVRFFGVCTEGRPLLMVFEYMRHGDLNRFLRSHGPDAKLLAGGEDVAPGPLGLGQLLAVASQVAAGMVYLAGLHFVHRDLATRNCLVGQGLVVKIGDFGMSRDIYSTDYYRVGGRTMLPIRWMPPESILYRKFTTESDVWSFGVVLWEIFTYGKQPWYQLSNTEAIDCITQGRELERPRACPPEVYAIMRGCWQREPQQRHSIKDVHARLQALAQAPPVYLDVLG
Vascular endothelial growth factor receptor 2, sequence (P35968 whole entry): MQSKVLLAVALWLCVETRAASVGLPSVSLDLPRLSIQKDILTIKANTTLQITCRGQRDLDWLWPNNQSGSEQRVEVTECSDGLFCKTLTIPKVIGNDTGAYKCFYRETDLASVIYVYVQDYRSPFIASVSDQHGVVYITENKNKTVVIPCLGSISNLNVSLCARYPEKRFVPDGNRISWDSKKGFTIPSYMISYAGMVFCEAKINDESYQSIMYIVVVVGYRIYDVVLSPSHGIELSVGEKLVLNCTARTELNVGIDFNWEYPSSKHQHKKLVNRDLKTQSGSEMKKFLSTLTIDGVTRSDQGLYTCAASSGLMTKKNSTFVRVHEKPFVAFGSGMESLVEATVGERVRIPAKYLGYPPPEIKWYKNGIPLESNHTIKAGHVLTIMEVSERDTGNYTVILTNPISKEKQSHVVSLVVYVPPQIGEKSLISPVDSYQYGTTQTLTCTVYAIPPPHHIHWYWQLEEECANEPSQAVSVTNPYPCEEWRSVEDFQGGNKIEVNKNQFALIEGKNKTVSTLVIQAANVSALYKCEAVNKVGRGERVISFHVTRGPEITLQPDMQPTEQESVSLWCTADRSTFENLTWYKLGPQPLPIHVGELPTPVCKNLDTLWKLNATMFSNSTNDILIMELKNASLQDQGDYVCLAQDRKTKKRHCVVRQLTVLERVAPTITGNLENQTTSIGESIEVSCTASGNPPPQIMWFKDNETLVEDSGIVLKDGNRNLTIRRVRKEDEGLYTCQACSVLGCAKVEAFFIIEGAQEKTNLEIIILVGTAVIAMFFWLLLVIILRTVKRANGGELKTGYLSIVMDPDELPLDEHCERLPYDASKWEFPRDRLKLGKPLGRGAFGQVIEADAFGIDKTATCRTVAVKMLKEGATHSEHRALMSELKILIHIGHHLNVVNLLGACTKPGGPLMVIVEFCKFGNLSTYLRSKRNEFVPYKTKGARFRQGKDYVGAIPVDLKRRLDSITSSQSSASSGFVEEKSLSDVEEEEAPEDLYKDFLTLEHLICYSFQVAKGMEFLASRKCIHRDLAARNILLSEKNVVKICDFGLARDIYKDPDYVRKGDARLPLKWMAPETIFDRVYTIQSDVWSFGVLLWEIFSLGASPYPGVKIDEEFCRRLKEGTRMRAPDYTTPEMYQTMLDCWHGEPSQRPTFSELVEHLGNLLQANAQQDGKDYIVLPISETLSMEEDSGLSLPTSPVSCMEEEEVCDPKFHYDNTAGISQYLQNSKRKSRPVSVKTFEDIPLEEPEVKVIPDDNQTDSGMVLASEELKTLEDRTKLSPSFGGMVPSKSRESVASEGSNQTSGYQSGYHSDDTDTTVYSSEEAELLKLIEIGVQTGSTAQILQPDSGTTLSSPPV
Serine/threonine-protein kinase Chk1, sequence (O14757 whole entry): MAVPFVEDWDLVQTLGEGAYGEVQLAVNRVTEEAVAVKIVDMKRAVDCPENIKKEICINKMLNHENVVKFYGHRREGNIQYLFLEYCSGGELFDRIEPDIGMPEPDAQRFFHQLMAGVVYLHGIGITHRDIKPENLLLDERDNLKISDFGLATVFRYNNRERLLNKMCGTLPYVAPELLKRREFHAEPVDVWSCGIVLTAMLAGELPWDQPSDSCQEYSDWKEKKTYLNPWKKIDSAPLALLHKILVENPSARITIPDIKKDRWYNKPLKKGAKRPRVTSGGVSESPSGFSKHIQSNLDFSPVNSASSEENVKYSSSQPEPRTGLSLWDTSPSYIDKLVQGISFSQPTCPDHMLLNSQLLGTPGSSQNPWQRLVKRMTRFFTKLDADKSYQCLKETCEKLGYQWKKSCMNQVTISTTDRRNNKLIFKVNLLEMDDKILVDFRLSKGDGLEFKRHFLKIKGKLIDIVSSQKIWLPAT
Aurora kinase A, sequence (O14965 whole entry): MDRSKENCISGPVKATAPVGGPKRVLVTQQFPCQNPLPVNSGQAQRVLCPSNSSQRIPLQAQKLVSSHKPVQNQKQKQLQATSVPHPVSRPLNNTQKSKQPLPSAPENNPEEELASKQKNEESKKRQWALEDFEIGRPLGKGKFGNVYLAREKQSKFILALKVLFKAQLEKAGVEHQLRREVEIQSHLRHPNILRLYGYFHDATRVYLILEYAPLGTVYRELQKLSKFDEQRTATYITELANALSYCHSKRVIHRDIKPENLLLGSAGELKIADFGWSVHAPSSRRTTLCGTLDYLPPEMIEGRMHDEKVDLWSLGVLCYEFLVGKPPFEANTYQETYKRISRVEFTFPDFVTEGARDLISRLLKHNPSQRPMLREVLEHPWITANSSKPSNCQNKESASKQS

- Ki [1]: 79.4 µM (active)
- Ki [2]: 50.1 µM (active)
- Ki [3]: 20 µM (active)
- Ki [4]: 79.4 µM (active)
- Ki [5]: 63.1 µM (active)
Compound: Cn1c(N)nc2sccc21

- Ki [6]: > 79.4 µM (inactive)
- Ki [8]: > 100 µM (inactive)
- Ki [9]: 6.31 µM (active)
- Ki [10]: > 79.4 µM (inactive)
- Ki [11]: > 100 µM (inactive)
- Ki [12]: > 100 µM (inactive)
- Ki [13]: > 50.1 µM (inactive)
- Ki [14]: 0.631 µM (active)
- Ki [15]: 20 µM (active)
- Ki [16]: 2 µM (active)
- Ki [17]: > 63.1 µM (inactive)
- Ki [3]: 0.2 µM (active)
- Ki [18]: 3.16 µM (active)
- Ki [19]: 63.1 µM (active)
- Ki [20]: 79.4 µM (active)
- Ki [21]: 25.1 µM (active)
Compound: CC(=O)n1ncc2cc(N)ccc21
- Ki [7]: 5.01 µM (active)
